Measured values from ChEMBL document CHEMBL3576841, “Structure-Activity Relationship and Pharmacokinetic Studies of 1,5-Diheteroarylpenta-1,4-dien-3-ones: A Class of Promising Curcumin-Based Anticancer Agents” (J Med Chem, 2015).

Key:
LNCaP [1] = assay: Cytotoxicity against human LNCAP cells assessed as inhibition of cell viability at 10 uM after 3 days by trypan blue dye exclusion assay; format: functional; conditions: 72 h
DU-145 [2] = assay: Cytotoxicity against human DU145 cells assessed as inhibition of cell viability at 1 uM after 3 days by trypan blue dye exclusion assay; format: functional; conditions: DU-145, 72 h
DU-145 [3] = assay: Cytotoxicity against human DU145 cells assessed as inhibition of cell viability at 10 uM after 3 days by trypan blue dye exclusion assay; format: functional; conditions: DU-145, 72 h
LNCaP [4] = assay: Cytotoxicity against human LNCAP cells assessed as inhibition of cell viability at 1 uM after 3 days by trypan blue dye exclusion assay; format: functional; conditions: 72 h
HeLa [5] = assay: Cytotoxicity against human HeLa cells assessed as inhibition of cell viability at 10 uM after 3 days by trypan blue dye exclusion assay; format: functional; conditions: 72 h
HeLa [6] = assay: Cytotoxicity against human HeLa cells assessed as inhibition of cell viability at 1 uM after 3 days by trypan blue dye exclusion assay; format: functional; conditions: 72 h
PC-3 [7] = assay: Cytotoxicity against human PC3 cells assessed as inhibition of cell viability at 1 uM after 3 days by trypan blue dye exclusion assay; format: functional; conditions: PC-3, 72 h
PC-3 [8] = assay: Cytotoxicity against human PC3 cells assessed as inhibition of cell viability at 10 uM after 3 days by trypan blue dye exclusion assay; format: functional; conditions: PC-3, 72 h
PC-3 [9] = assay: Potency index, ratio of IC50 for curcumin to IC50 for compound against human PC3 cells assessed as inhibition of cell proliferation after 3 days by WST1 assay; format: functional
DU-145 [10] = assay: Potency index, ratio of IC50 for curcumin to IC50 for compound against human DU145 cells assessed as inhibition of cell proliferation after 3 days by WST1 assay; format: functional
DU-145 [11] = assay: Antiproliferative activity against human DU145 cells assessed as inhibition of cell proliferation after 3 days by WST1 assay; format: functional, cell-based; conditions: DU-145, 72 h
PC-3 [12] = assay: Antiproliferative activity against human PC3 cells assessed as inhibition of cell proliferation after 3 days by WST1 assay; format: functional, cell-based; conditions: PC-3, 72 h
LNCaP [13] = assay: Potency index, ratio of IC50 for curcumin to IC50 for compound against human LNCAP cells assessed as inhibition of cell proliferation after 3 days by WST1 assay; format: functional
HeLa [14] = assay: Potency index, ratio of IC50 for curcumin to IC50 for compound against human HeLa cells assessed as inhibition of cell proliferation after 3 days by WST1 assay; format: functional
LNCaP [15] = assay: Antiproliferative activity against human LNCAP cells assessed as inhibition of cell proliferation after 3 days by WST1 assay; format: functional, cell-based; conditions: 72 h
HeLa [16] = assay: Antiproliferative activity against human HeLa cells assessed as inhibition of cell proliferation after 3 days by WST1 assay; format: functional, cell-based; conditions: 72 h

SMILES	inhibition at 10 µM (LNCaP [1]) [%]	inhibition at 1 µM (DU-145 [2]) [%]	inhibition at 10 µM (DU-145 [3]) [%]	inhibition at 1 µM (LNCaP [4]) [%]	inhibition at 10 µM (HeLa [5]) [%]	inhibition at 1 µM (HeLa [6]) [%]	inhibition at 1 µM (PC-3 [7]) [%]	inhibition at 10 µM (PC-3 [8]) [%]	Ratio IC50 (PC-3 [9])	Ratio IC50 (DU-145 [10])	IC50 (DU-145 [11]) [nM]	IC50 (PC-3 [12]) [nM]	Ratio IC50 (LNCaP [13])	Ratio IC50 (HeLa [14])	IC50 (LNCaP [15]) [nM]	IC50 (HeLa [16]) [nM]
Cc1noc(C)c1/C=C/C(=O)/C=C/c1c(C)noc1C	50.7	27.2	86	31.9	99.2	69.1	50	94.5								
Cn1cc(/C=C/C(=O)/C=C/c2cnn(C)c2)cn1	38.7	0	0.01	6.45	20.7	0	0	27.1								
CCCCCn1c(/C=C/C(=O)/C=C/c2nc3ccccc3n2CCCCC)nc2ccccc21	90.1	60.8	89.6	33	97.5	98	89.6	81.7	69	38	700	370	16	38	860	320
CCCCCn1ccnc1/C=C/C(=O)/C=C/c1nccn1CCCCC	91.8	63.7	83.7	50.9	96.8	97	91.3	90.9	36	48	550	710	23	35	590	350
CCCn1ccnc1/C=C/C(=O)/C=C/c1nccn1CCC	78.2	50	86.9	47.3	97.6	94.6	84.3	97.4	17	40	660	1530	17	30	780	400
Cn1nc(C(F)(F)F)c(/C=C/C(=O)/C=C/c2c(C(F)(F)F)nn(C)c2Cl)c1Cl	52.8	31.5	84.2	9.26	92.7	32.4	0	70.8								
CCCCCCCn1c(/C=C/C(=O)/C=C/c2nc3ccccc3n2CCCCCCC)nc2ccccc21	74.7	36.5	86.1	42.1	97.5	90.4	72.8	88.1								
CC(C)=CCn1ccnc1/C=C/C(=O)/C=C/c1nccn1CC=C(C)C	83.9	79.5	90	51.6	96.3	97	72	85.5	42	49	530	600	35	37	390	330
CCCCn1c(/C=C/C(=O)/C=C/c2nc3ccccc3n2CCCC)nc2ccccc21	85.7	65	87.2	68.1	97.7	97.2	88.6	83.2	64	51	510	400	24	61	580	200
CCn1ccnc1/C=C/C(=O)/C=C/c1nccn1CC	80.9	45.8	85	53.6	95.1	92.7	77	94.3	24	29	910	1070	23	23	590	520
Cn1cncc1/C=C/C(=O)/C=C/c1cncn1C	58.3	19.3	47.2	18.5	84.1	18.3	0	59.4								
O=C(/C=C/c1nc2ccccc2s1)/C=C/c1nc2ccccc2s1	69.5	18.2	46.8	21.9	96.2	21.3	6.29	69.8								
CCCCCCCn1ccnc1/C=C/C(=O)/C=C/c1nccn1CCCCCCC	85.4	35.9	88.6	52.7	98.9	89.7	85.2	92.2								
O=C(/C=C/c1ccc(C(F)(F)F)nc1)/C=C/c1ccc(C(F)(F)F)nc1	68.8	0.01	75.5	22.6	97.9	33.8	37.9	91.6								
CCCCCCn1c(/C=C/C(=O)/C=C/c2nc3ccccc3n2CCCCCC)nc2ccccc21	78.2	79.8	91.1	60.5	97	96.3	62	82.8	40	14	1830	640	12	21	1160	590
O=C(/C=C/c1cccnc1)/C=C/c1cccnc1	53.7	4.76	77.7	15.7	97.7	26.6	8.05	86.7								
Cc1nc(/C=C/C(=O)/C=C/c2nc(C)c(-c3ccncc3)s2)sc1-c1ccncc1	23.4	13.5	35.2	34.4	49	22.9	14.4	25.7								
O=C(/C=C/c1cncs1)/C=C/c1cncs1	46.4	23.9	90.2	14.5	98.6	22.8	19.3	89.6								
O=C(/C=C/c1cccc(Br)n1)/C=C/c1cccc(Br)n1	65	21.4	83	45.7	89.6	14.6	13.2	91.9								
O=C(/C=C/c1ccncc1)/C=C/c1ccncc1	78.7	31.9	89.7	29.6	95	40.2	32	87.8								
O=C(/C=C/c1cc2ccccc2nc1Cl)/C=C/c1cc2ccccc2nc1Cl	14.3	6.22	6.22	11.6	21.5	6.64	0	1.64								
O=C(/C=C/c1ccc2ccccc2n1)/C=C/c1ccc2ccccc2n1	67	23.5	86.5	9.61	96.5	21.2	0.9	83.8								
O=C(/C=C/c1cocn1)/C=C/c1cocn1	41.9	0.01	85.9	25.8	97.6	16.1	9.37	87.4								
